Results from patent publication US10183030B2, “17α,21-diesters of cortexolone for use in the treatment of tumors” (COSMO TECHNOLOGIES LTD., priority 2014, dated 2019).
pIC50: −log10 of the molar value.

Tests used:
wild type AR (AR-LBD) = target: T1, wild type AR (AR-LBD) (Rattus norvegicus, UniProt P15207); assay: AR competition binding assay (Polar Screen, fluorescence polarization); conditions: displacement of Fluormone AL Green from AR-LBD; read-out: affinity for AR receptor (IC50 molar)
T1 construct: purchased life Technologies
Experimental: Briefly, the AR was added to a fluorescent androgen ligand (Fluormone™ AL Green) to from the complex AR-LBD. Competitors displaced the fluorescent Fluormone™ AL Green ligand from the AR-LBD causing the fluorescent ligand to tumble rapidly during its fluorescence lifetime, resulting in a low polarization value. Non competitors will not displace the fluorescent ligand from the complex, so the polarization value remains high. The shift in polarization value in the presence of test compounds is used to determine relative affinity of test compounds for AR-LBD.

Glucocorticoid Receptor = target: T2, Glucocorticoid Receptor (Homo sapiens, UniProt P04150); assay: GR reporter assay, agonist mode; assay type: cell-based; conditions: at very high concentrations
T2 construct: endogenous in cells; host or cells: human kidney epithelial cells
T2 sequence (P04150 1-777): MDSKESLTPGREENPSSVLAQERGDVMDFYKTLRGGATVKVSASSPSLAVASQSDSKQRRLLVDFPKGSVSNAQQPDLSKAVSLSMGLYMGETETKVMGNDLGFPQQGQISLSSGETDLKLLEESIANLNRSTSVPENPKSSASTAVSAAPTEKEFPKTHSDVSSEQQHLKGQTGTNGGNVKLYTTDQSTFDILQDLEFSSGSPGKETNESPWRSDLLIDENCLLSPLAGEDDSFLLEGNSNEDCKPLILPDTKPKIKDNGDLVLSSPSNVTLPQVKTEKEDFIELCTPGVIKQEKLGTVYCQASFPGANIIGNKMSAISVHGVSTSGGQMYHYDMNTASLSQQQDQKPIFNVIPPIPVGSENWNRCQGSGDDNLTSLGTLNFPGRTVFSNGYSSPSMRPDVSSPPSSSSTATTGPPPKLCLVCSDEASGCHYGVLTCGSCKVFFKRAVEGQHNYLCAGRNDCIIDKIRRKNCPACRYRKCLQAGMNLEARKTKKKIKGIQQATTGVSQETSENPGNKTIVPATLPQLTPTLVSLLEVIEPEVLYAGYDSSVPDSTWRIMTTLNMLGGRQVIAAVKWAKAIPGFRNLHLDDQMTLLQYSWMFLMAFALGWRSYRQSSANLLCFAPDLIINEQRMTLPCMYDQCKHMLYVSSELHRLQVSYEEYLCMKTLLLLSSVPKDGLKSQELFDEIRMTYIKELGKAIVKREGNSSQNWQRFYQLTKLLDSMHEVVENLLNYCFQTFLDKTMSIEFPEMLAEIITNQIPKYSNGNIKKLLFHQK
Experimental: The androgen and glucocorticoid hormones elicit divergent and often opposing effects in cells, tissues, and animals. […] CB-03-10 GR antagonist and agonist activities were tested in an in vitro assay. Briefly, human kidney epithelial cells were transfected with DNA construct containing GR binding sites linked to luminescent based reporter molecule. After 24 hours, cells were treated under antagonist or agonist modes. After an additional 24 hours, luminescence which is proportional to GR agonist transcriptional activity was quantitated.
Agonist Assay—was based on induction of luminescence by CB-03-10
The agonist activity of CB-03-10 was compared to a RU486 which is known to not have agonist activity.

LNCaP cells = assay: LNCaP cell viability in the PSA secretion experiment; assay type: cell-based; conditions: Homo sapiens, 48 hours, same cells as PSA assay
Experimental: Prostate-specific antigen, or PSA, is a protein produced by cells of the prostate gland. The PSA test measures the level of PSA in a person's blood. The blood level of PSA is often elevated in men with prostate cancer and it used as surrogate marker to test prostate cancer progression in human population. […] After 48 hours incubation with test compounds, supernatants were harvested and tested with an Elisa assay for PSA and same cells were lysed for cell viability assessment.

T1 sequence (P15207 651-882 limits assumed): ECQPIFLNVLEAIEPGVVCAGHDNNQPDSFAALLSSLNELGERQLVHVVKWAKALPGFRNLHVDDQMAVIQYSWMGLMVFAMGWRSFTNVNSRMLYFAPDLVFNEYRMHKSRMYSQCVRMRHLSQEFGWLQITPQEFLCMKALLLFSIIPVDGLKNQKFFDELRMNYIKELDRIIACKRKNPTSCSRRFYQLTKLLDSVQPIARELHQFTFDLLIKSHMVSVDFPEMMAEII

For CCCCC(=O)O[C@]1(C(=O)COC(=O)CC)CC[C@H]2[C@@H]3CCC4=CC(=O)CC[C@]4(C)[C@H]3CC[C@@]21C [CB-03-10, cortexolone 17α-valerate-21-propionate], the pIC50 (wild type AR (AR-LBD)) was 5.96, the “GR agonist activity relative to 50 nM Dex” value (Glucocorticoid Receptor) was 20% and the pIC50 (LNCaP cells) was 4.96.
